From the NIST ThermoML archive (doi:10.1016/j.jct.2018.11.020)

Key:
[1] = refractive index (Na D-line) (dimensionless); details: 101.33 kPa, Liquid, Standard Abbe refractometry
[2] = 101.33 kPa, Liquid; for viscosity: Concentric cylinders viscometry; for mass density: Vibrating tube method

Cc1ccccc1C [1,2-dimethylbenzene]
Details	mass density, [2] [kg/m3]	refractive index, [1]	viscosity, [2] [mPa·s]
288.15 K	883.91	1.50706	0.869
293.15 K	879.72	1.5044	0.8175
298.15 K	875.51	1.50173	0.7661
303.15 K	871.3	1.49906	0.722
308.15 K	867.07	1.49644	0.6809
313.15 K	862.83	1.49383	0.6437
318.15 K	858.57	1.49124	0.608
323.15 K	854.3	1.48869	0.5757
328.15 K	850.01	1.48604	0.5458
333.15 K	845.71	1.48345	0.5221

Cc1ccc(C)cc1 [1,4-dimethylbenzene]
Details	mass density, [2] [kg/m3]	refractive index, [1]	viscosity, [2] [mPa·s]
288.15 K	865.31	1.4977	0.6862
293.15 K	860.97	1.49493	0.6515
298.15 K	856.63	1.49221	0.6168
303.15 K	852.27	1.48939	0.5848
308.15 K	847.91	1.48658	0.5548
313.15 K	843.53	1.48391	0.5247
318.15 K	839.14	1.48126	0.5001
323.15 K	834.74	1.47853	0.4753
328.15 K	830.32	1.47608	0.4521
333.15 K	825.88	1.47328	0.4342

Cc1cccc(C)c1 [1,3-dimethylbenzene]
Details	mass density, [2] [kg/m3]	refractive index, [1]	viscosity, [2] [mPa·s]
288.15 K	868.56	1.49868	0.6601
293.15 K	864.27	1.49604	0.6322
298.15 K	859.98	1.49339	0.5969
303.15 K	855.68	1.49074	0.5674
308.15 K	851.36	1.4881	0.5396
313.15 K	847.03	1.48545	0.5112
318.15 K	842.69	1.4828	0.4888
323.15 K	838.33	1.48017	0.4657
328.15 K	833.95	1.47757	0.4439
333.15 K	829.56	1.47489	0.4273

Cc1ccccc1 [toluene]
Details	mass density, [2] [kg/m3]	refractive index, [1]	viscosity, [2] [mPa·s]
288.15 K	871.5	1.49921	0.6284
293.15 K	866.84	1.49631	0.5926
298.15 K	862.18	1.49338	0.5698
303.15 K	857.51	1.49042	0.541
308.15 K	852.83	1.48751	0.514
313.15 K	848.15	1.48461	0.4854
318.15 K	843.44	1.48171	0.4646
323.15 K	838.73	1.47889	0.4421
328.15 K	834	1.47596	0.4209
333.15 K	829.25	1.47305	0.4035
